Test results taken from US12269793B2, “Affinity illudofulvene conjugates” (AF Chemicals, LLC, priority 2019, dated 2025).
Where two headings read alike, the source gives them in different places. Where a SMILES comes first, the peptide text is derived from it. [ ]: non-standard residue; d: D form. The star is where a group is joined. X4 = CC1=C(C*)C2=C(C)C3(CC3)[C@@](C)(O)C(=O)C2=C1

Tests used:
Assay in all cases: cells
[1] = tested on: MV522 Target Cell Line (lung-derived adenocarcinoma); details: MV522, 2 h, read-out: Mean IC50 value
[2] = tested on: 8392B Nontarget Cell Line (hematopoietic); details: 2 h
[3] = tested on: MV522 Target Cell Line (lung-derived adenocarcinoma); details: MV522, 48 h, read-out: Mean IC50 value
[4] = tested on: 8392B Nontarget Cell Line (hematopoietic); details: 48 h, read-out: Mean IC50 value
[5] = read-out: Mean IC50 value, 8392B Nontarget Cell Line, 2 hr exposure, ± SD, N = 3 unless otherwise indicated

Structure (SMILES) | IC50 [1] | IC50 [2, 5] | IC50 [3] | further results
CC1=C(CCC(O)C#N)C2=C(C)C3(CC3)[C@@](C)(O)C(=O)C2=C1 (stereo partly shown) [Analog 127] | 0.87 ± 0.03 µM | > 30 µM |  | 
CC(=O)N[C@@H](CSCC1=C(C)C=C2C(=O)[C@](C)(O)C3(CC3)C(C)=C21)C(=O)N[C@@H](CC(C)C)C(=O)N[C@H](CC(C)C)C(=O)N[C@H](C=O)CC(C)C [Analog 087] (Ac-C(X4)L[dL]L-aldehyde) | > 40 µM | > 40 µM | 24700 ± 3900 nM | 
CC1=C2C=C(CO)C=C2C(=O)[C@](C)(O)C12CC2 [Analog 062] |  | 37.1 ± 2.3 µM | 660 ± 200 nM | 
CC1=C(CCC(=O)O)C2=C(C)C3(CC3)[C@@](C)(O)C(=O)C2=C1 [Analog 038] | 0.75 ± 0.06 µM | 24.9 ± 8 µM |  | 
COCC1=CC2=C(C)C3(CC3)[C@@](C)(O)C(=O)C2=C1 [Analog 079] |  | > 100 µM |  | 
CC1=C(CCC=NNc2ccccc2)C2=C(C)C3(CC3)[C@@](C)(O)C(=O)C2=C1 [Analog 122] |  | 14.5 ± 1.2 µM |  | 
CC1=C(CSCC[C@H](N)C(=O)O)C2=C(C)C3(CC3)[C@@](C)(O)C(=O)C2=C1 [Analog 097] |  | > 82 µM |  | 
CC1=C2C=CC=C2C(=O)C(O)C12CC2 (stereo not shown) [Analog 035] | 5.6 ± 0.6 µM | > 150 µM |  | 
CC1=C(CSC[C@H](NC(=O)CC[C@@H](N)C(=O)O)C(=O)NCC(=O)O)C2=C(C)C3(CC3)[C@@](C)(O)C(=O)C2=C1 [Analog 089] | 19.3 ± 5.7 µM | > 60 µM | 15500 ± 2800 nM | 
CC1=C2C(=CC(C)(C)[C@@H]2OC(=O)CCCC(=O)Oc2ccc3c(c2)CCC2C3CC[C@]3(C)C(O)CCC23)C(=O)[C@](C)(O)C12CC2 (stereo partly shown) [Analog 109] | > 50 µM |  |  | IC50 ([2]; read-out: Mean IC50 value): > 50 µM
COC(CCC1=C(C)C=C2C(=O)[C@](C)(O)C3(CC3)C(C)=C21)OC [Analog 039] |  | 24.6 ± 2.4 µM | 600 ± 40 nM | 
COC(=O)CSCC1=C(C)C(SCC(=O)OC)C2(O)C(=O)[C@](C)(O)C3(CC3)C(C)=C12 (stereo partly shown) [Analog 031] |  |  | > 3000 nM | 
CC1=C(CSCC(O)CO)C2=C(C)C3(CC3)[C@@](C)(O)C(=O)C2=C1 (stereo partly shown) [Analog 032] | 0.6 ± 0.19 µM | > 30 µM |  | 
C/C(C=O)=C1\[C@@H](O)C[C@]1(C)[C@H]1CC(C)(C)C[C@@H]1O [Analog 105] | 7.3 ± 1.2 µM |  | 2100 ± 400 nM | IC50 ([2]; read-out: Mean IC50 value): > 100 µM
CC(=O)N[C@@H](CSCC1=C(C)C=C2C(=O)[C@](C)(O)C3(CC3)C(C)=C21)C(=O)N[C@@H](CC(C)C)C(=O)N[C@@H](CC(C)C)C(=O)N[C@@H](C=O)Cc1ccccc1 [Analog 085] (Ac-C(X4)LL[dF]-aldehyde) | > 40 µM |  | > 40000 nM | 
COCC1=C(COC)C2=C(C)C3(CC3)[C@@](C)(O)C(=O)C2=C1 [Analog 082] | 50.6 ± 7.1 µM | > 100 µM |  | 
CC1=C(CCC=NNC(N)=O)C2=C(C)C3(CC3)[C@@](C)(O)C(=O)C2=C1 [Analog 121] |  | 15.2 ± 6 µM |  | 
COC(=O)CSCC1=C(C)C(SCC(=O)OC)=C2C(=O)[C@](C)(O)C3(CC3)C(C)=C12 [Analog 030] |  |  | > 3000 nM | 
CC(=O)OCC1=C(CO)C=C2C(=O)[C@](C)(O)C3(CC3)C(C)=C21 [Analog 078] | 20.4 ± 6.3 µM | > 100 µM |  | 

Structure (SMILES) | IC50 [1] | IC50 [2, 5] | IC50 [3] | further results
CC1=C2C(=CC(C)(C)[C@@H]2OC(=O)CCCC(=O)Oc2ccc3c(c2)CCC2C3CC[C@]3(C)C(=O)CCC23)C(=O)[C@](C)(O)C12CC2 (stereo partly shown) [Analog 107] | > 50 µM |  |  | IC50 ([2]; read-out: Mean IC50 value): > 50 µM
CC1=C2C(=C[C@@](C)(COC(=O)CCCC(=O)O)C2OC(=O)CCCC(=O)O)C(=O)[C@](C)(O)C12CC2 (stereo partly shown) [Analog 117] |  |  |  | IC50 [4]: 10 ± 2 nM
CC(=O)ON=CCCC1=C(C)C=C2C(=O)[C@](C)(O)C3(CC3)C(C)=C21 [Analog 124] |  | > 30 µM | 870 ± 350 nM | 
CC1=C(CSCC(N)C(=O)O)C2=C(C)C3(CC3)[C@@](C)(O)C(=O)C2=C1 (stereo partly shown) [Analog 037] |  | > 85 µM | 29200 ± 2300 nM | 
CC1=C2C(=CC(CO)=C2CO)C(=O)[C@](C)(O)C12CC2 [Analog 063] |  |  | 580 ± 250 nM | 
CC1=C(COCC2=C(C)C=C3C(=O)[C@](C)(O)C4(CC4)C(C)=C32)C2=C(C)C3(CC3)[C@@](C)(O)C(=O)C2=C1 [Analog 017] |  | 14.7 ± 0.9 µM | 320 ± 60 nM | 
CC1=C2C(=CC3=C2COCOC3)C(=O)[C@](C)(O)C12CC2 [Analog 104] |  | 36.4 ± 6.5 µM |  | 
CC1=C(COC(C)(C)C)C2=C(C)C3(CC3)[C@@](C)(O)C(=O)C2=C1 [Analog 116] | 0.4 ± 0.1 µM | 7 ± 0.4 µM |  | 
CC1=C(CSCc2ccccc2)C2=C(C)C3(CC3)[C@@](C)(O)C(=O)C2=C1 [Analog 024] |  | 12.8 ± 2.1 µM |  | 
COC(C)(C)OCC1=C(C)C=C2C(=O)[C@](C)(O)C3(CC3)C(C)=C21 [Analog 021] |  | 34.4 ± 9.4 µM | 930 ± 250 nM | 
CC1=C2C(=C[C@@]3(C)COCO[C@@H]23)C(=O)[C@](C)(O)C12CC2 [Analog 014] | 0.115 ± 0.03 µM | 9.65 ± 0.2 µM |  | 
COCC1=C(C)C=C2C(=O)[C@](C)(O)C3(CC3)C(C)=C21 [Analog 080] | 8.8 ± 2.4 µM | > 100 µM |  | 
CC(=O)OCC1=C(CO)C2=C(C)C3(CC3)[C@@](C)(O)C(=O)C2=C1 [Analog 077] | 9.2 ± 1.2 µM |  |  | 
CC1=C(CCC=NNS(=O)(=O)c2ccc(C)cc2)C2=C(C)C3(CC3)[C@@](C)(O)C(=O)C2=C1 [Analog 123] |  |  | 600 ± 60 nM | 
CCOC(CCC1=C(C)C=C2C(=O)[C@](C)(O)C3(CC3)C(C)=C21)OCC [Analog 040] |  |  |  | IC50 [4]: 5200 ± 470 nM
CC1=C(CSc2ccc(O)cc2)C2=C(C)C3(CC3)[C@@](C)(O)C(=O)C2=C1 [Analog 023] | 2.9 ± 1.14 µM | > 138 µM | 2750 ± 500 nM | 
CC1=C(CO[C@@H]2O[C@@H](CO)[C@H](O)[C@@H](O)[C@@H]2O)C2=C(C)C3(CC3)[C@@](C)(O)C(=O)C2=C1 [Analog 018] | 8.8 ± 2.9 µM |  |  | 
CC1=C(C=NO)C2=C(C)C3(CC3)[C@@](C)(O)C(=O)C2=C1 [Analog 126] |  | > 30 µM |  | 
CC1=C2C=CC=C2C(=O)C2(OCCO2)C12CC2 [Analog 033] |  | 29.9 ± 3.3 µM | 4600 ± 200 nM | 

Structure (SMILES) | IC50 [1] | IC50 [2, 5] | IC50 [3] | further results
COCC1=C(CO)C=C2C(=O)[C@](C)(O)C3(CC3)C(C)=C21 [Analog 081] | > 80 µM | > 80 µM |  | 
CC1=C(CC2CC(C=O)CC(C=O)C2O)C2=C(C)C3(CC3)[C@@](C)(O)C(=O)C2=C1 (stereo partly shown) [Analog 013] | 5.1 ± 0.7 µM |  |  | 
CC1=C2C(=CC(C)(C)[C@@H]2OC(=O)CCCC(=O)O)C(=O)[C@](C)(O)C12CC2 [Analog 106] | 5.2 ± 1 µM | > 83 µM |  | 
CC1=C(COCC(O)CO)C2=C(C)C3(CC3)[C@@](C)(O)C(=O)C2=C1 (stereo partly shown) [Analog 019] | 0.47 ± 0.06 µM | > 75 µM | 660 ± 80 nM | 
CC1=C2C=CC=C2[C@@H](O)C2(OCCO2)C12CC2 [Analog 060] | 19.4 ± 1.8 µM |  |  | IC50 ([2]; read-out: Mean IC50 value): 27.6 ± 3 µM
CC(=O)O[C@@]1(C)C(=O)C2=CC(C)=C(CO)C2=C(C)C12CC2 [Analog 015] |  | 0.81 ± 0.26 µM | 480 ± 110 nM | 
COC(=O)CSCC1=C(C)C=C2C(=O)[C@](C)(O)C3(CC3)C(C)=C21 [Analog 025] |  | > 25 µM |  | 
CC1=C(CCC=NO)C2=C(C)C3(CC3)[C@@](C)(O)C(=O)C2=C1 [Analog 115] |  |  |  | IC50 [4]: 630 ± 60 nM
CC1=C(COCCO)C2=C(C)C3(CC3)[C@@](C)(O)C(=O)C2=C1 [Analog 022] |  | 31.7 ± 1.4 µM |  | 
CC1=C(CSC[C@H](N)C(=O)N[C@@H](CC(N)=O)C(=O)NCC(=O)N[C@@H](CCCNC(=N)N)C(=O)N[C@@H](CS)C(=O)O)C2=C(C)C3(CC3)[C@@](C)(O)C(=O)C2=C1 [Analog 102] (H-C(X4)NGRC-OH) | > 13 µM |  |  | 
CC(=O)OCC1=C(COC(C)=O)C2=C(C)C3(CC3)[C@@](C)(O)C(=O)C2=C1 [Analog 076] |  | 39.5 ± 7.2 µM |  | 
CC1=C(Br)C2=C(C)C3(CC3)[C@@](C)(O)C(=O)C2=C1 [Analog 004] |  |  | 600 nM | 
CC(=O)OCC1=C(C)C=C2C(=O)[C@](C)(O)C3(CC3)C(C)=C21 [Analog 034] |  | > 100 µM | 490 ± 40 nM | 
CC1=C2C(=C[C@@](C)(COC(=O)c3cc([N+](=O)[O-])cc([N+](=O)[O-])c3)C2OC(=O)CCCC(=O)O)C(=O)[C@](C)(O)C12CC2 (stereo partly shown) [Analog 118] |  | 24.5 ± 4.5 µM |  | 
CC(=O)OCC1=C(CO)C=C2C(=O)[C@](C)(OC(C)=O)C3(CC3)C(C)=C21 [Analog 103] | 31.8 ± 4.9 µM | 12.1 ± 2 µM | 5900 ± 400 nM | 
CC1=C2C(=O)[C@](C)(CO)C=C2C(=O)[C@](C)(O)C12CC2 [Analog 099] | 8.4 ± 1.1 µM | 4 ± 0.4 µM |  | 
CC(=O)N[C@@H](CSCC1=CC=C2C(=O)[C@](C)(O)C3(CC3)C(C)=C12)C(=O)N[C@@H](C)c1ccccc1 [Analog 065] | 6.2 ± 1.1 µM |  |  | 
CC(=O)OCC1=CC2=C(C)C3(CC3)[C@@](C)(O)C(=O)C2=C1 [Analog 075] | 19.6 ± 9.7 µM | 62 ± 3.6 µM |  | 
